{
  "source": "patent US20190292189A1",
  "about": "“LIM KINASE INHIBITORS” (VIRONGY, LLC, priority 2016, published 2019)",
  "key": {"LRRK2 (G20195)": {"biological_target": "T1, LRRK2 (G20195) (Homo sapiens, UniProt Q5S007, G2019S)", "T1 construct": "purchased Reaction Biology Corporation", "T1 sequence (Q5S007 970-2527 G2019S limits assumed)": "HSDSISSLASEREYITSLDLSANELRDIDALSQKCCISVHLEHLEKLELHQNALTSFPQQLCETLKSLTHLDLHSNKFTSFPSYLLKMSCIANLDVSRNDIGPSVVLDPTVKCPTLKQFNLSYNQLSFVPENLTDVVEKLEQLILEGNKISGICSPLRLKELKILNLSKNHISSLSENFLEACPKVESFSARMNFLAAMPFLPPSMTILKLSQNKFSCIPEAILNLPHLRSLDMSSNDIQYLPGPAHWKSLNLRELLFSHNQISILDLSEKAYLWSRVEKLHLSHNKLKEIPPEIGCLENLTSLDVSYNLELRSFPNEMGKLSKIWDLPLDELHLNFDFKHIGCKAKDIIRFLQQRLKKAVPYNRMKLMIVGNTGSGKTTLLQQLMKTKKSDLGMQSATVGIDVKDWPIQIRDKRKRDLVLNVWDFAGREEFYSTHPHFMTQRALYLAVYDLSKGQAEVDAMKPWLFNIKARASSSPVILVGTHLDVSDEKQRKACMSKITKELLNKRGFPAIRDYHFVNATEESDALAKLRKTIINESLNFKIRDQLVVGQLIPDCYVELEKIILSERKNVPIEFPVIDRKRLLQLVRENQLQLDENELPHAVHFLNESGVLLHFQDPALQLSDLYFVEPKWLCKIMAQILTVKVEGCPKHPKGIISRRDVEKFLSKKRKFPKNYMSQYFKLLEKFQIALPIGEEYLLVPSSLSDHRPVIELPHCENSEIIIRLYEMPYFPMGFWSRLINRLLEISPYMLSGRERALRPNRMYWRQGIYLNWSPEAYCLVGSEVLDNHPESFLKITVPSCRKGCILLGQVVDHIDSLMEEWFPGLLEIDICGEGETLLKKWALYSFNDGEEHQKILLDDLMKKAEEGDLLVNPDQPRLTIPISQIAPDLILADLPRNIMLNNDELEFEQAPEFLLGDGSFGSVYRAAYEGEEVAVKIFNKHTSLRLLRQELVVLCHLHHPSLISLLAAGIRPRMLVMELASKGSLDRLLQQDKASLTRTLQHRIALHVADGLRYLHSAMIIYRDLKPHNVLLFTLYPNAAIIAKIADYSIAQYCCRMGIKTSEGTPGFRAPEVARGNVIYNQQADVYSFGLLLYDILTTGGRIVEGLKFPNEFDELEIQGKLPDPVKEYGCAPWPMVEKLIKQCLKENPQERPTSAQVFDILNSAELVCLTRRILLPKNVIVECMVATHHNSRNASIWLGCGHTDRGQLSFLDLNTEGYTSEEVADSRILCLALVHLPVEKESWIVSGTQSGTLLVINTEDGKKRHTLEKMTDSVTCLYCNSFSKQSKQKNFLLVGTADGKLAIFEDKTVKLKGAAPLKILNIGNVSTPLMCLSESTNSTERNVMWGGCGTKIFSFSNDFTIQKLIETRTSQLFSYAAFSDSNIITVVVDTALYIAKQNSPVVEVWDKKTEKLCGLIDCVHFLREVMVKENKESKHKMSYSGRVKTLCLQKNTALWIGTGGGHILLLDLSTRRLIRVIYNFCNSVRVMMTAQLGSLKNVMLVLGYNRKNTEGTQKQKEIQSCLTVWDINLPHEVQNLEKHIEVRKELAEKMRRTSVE", "assay": "Kinase profiling at 1 μM (Reaction Biology)", "type": "biochemical", "protocol": "(§1) Profiling was carried out at Reaction Biology Corporation following a protocol described at its website: http://www.reactionbiology.com/webapps/site/. The % data were the average from two determinations. ATP concentration used: 10 μM; Staurosporine was used as the positive control.\n(§2) Biochemical assays for all Limk inhibitors and kinase profiling were carried out in Reaction Biology Corporation and followed the protocols described on its website. […] Compounds were tested at 1 μM with duplicate experiments in profiling assays. […] Reactions were carried out at 10 μM ATP, 1 μM substrate cofilin, and 50 nM Limk1 (final concentrations)."}, "P450 3A4": {"biological_target": "P450 3A4 (Homo sapiens, UniProt P08684)", "sequence (P08684 whole entry)": "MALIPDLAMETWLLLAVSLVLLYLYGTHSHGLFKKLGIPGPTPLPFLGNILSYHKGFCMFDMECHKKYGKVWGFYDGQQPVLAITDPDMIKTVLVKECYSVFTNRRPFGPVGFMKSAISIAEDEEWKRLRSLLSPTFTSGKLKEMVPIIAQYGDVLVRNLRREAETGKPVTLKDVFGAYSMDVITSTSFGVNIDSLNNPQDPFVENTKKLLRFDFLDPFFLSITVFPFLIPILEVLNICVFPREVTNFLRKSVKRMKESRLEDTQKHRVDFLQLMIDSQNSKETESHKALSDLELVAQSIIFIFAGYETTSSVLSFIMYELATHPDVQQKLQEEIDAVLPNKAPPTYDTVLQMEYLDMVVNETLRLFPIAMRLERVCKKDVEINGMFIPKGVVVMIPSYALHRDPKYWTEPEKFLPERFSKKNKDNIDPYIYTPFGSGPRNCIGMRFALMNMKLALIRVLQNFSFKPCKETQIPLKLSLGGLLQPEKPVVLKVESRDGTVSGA", "assay": "P450 inhibition at 10 μM", "type": "in vitro ADME"}, "ROCK-II": {"biological_target": "ROCK-II (Homo sapiens, UniProt O75116)", "sequence (O75116 whole entry, species assumed)": "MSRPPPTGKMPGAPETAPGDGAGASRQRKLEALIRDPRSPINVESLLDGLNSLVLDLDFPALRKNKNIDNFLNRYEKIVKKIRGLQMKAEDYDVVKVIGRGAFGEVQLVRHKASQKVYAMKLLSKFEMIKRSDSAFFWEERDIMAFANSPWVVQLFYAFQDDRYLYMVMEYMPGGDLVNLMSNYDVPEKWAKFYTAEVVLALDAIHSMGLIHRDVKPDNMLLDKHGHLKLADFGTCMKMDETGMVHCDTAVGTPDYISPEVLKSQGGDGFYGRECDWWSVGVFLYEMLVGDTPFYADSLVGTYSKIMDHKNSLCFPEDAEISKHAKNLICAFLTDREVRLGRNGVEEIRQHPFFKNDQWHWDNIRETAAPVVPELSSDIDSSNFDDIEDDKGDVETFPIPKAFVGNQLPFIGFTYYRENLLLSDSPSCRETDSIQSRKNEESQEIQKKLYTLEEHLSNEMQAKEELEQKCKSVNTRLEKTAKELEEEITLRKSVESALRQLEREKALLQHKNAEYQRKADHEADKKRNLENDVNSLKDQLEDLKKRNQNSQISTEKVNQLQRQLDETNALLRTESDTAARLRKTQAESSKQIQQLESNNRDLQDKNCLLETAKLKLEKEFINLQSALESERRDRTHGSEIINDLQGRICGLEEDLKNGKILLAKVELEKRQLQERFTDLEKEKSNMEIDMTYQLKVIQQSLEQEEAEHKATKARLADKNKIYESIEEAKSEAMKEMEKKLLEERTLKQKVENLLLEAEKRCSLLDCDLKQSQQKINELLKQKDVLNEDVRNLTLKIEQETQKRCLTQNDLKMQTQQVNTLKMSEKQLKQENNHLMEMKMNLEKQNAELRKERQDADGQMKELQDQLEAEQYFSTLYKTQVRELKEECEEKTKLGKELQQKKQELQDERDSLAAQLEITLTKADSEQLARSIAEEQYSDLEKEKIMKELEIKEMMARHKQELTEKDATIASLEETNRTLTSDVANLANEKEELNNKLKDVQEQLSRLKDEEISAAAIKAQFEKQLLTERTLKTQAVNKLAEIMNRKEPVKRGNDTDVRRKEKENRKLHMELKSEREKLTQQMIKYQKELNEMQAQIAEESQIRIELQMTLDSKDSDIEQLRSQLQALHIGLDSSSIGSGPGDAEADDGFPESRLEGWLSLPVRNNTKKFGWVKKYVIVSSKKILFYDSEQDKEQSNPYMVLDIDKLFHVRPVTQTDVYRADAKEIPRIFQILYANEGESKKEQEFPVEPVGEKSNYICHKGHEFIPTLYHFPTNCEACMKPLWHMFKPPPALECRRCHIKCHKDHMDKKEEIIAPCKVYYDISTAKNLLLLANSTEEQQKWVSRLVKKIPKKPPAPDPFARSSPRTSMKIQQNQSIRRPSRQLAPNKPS", "assay": "ROCK-II biochemical counter-screen", "conditions": "read-out: ROCK-II IC50"}, "HIV-1(NL4-3) [1]": {"test_system": "HIV-1(NL4-3)", "assay": "microbe, parasite or virus in culture", "type": "cell-based"}, "[2]": {"assay": "Plasma pharmacokinetics studies on rats", "conditions": "rats", "protocol": "In vivo pharmacokinetics (PK) studies were conducted for selected compounds during the whole optimization at various stages in order to identify structural elements that are favorable for in vivo applications, and/or to evaluate the feasibility of optimized Limk inhibitors for animal studies."}, "P450 1A2": {"biological_target": "T2, P450 1A2 (Homo sapiens, UniProt P05177)", "T2 sequence (P05177 1-516)": "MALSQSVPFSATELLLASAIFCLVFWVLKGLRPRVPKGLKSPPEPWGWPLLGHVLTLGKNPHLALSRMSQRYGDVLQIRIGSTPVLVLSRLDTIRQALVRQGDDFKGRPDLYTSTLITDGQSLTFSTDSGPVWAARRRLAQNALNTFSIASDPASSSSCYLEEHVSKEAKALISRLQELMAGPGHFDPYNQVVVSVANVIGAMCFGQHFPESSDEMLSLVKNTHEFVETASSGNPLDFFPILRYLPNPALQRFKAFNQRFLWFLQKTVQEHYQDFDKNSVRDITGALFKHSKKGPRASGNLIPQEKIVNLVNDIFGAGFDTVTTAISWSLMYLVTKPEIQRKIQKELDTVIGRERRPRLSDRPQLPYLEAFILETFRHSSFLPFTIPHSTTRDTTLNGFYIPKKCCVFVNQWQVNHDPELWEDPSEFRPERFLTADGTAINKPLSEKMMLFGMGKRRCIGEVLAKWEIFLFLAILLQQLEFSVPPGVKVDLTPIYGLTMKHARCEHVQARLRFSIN"}, "resting CD4 T cells": {"test_system": "resting CD4 T cells", "assay": "Surface staining of CD25 and CD69 (T cell activation)", "type": "cell-based, human", "conditions": "CD3/CD28 beads"}, "Limk1": {"biological_target": "Limk1 (Homo sapiens, UniProt P53667)", "sequence (P53667 285-638)": "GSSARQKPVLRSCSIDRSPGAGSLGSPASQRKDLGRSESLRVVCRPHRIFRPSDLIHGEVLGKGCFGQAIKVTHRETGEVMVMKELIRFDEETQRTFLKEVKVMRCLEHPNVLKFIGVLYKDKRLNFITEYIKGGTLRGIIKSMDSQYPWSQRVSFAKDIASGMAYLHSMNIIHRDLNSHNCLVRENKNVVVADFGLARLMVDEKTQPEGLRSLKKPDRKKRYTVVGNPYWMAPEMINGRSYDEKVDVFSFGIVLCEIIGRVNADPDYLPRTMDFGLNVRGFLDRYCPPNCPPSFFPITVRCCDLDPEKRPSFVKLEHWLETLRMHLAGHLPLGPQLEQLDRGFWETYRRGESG", "assay": "Kinase profiling at 1 μM (Reaction Biology)", "type": "biochemical", "design": "His; purchased Reaction Biology Corporation; host or cells: insect cells", "conditions": "ATP 10 μM", "protocol": "as §1, §2"}, "[3]": {"test_system": "HIV-1 viral entry in CEM-SS T cells", "assay": "Viral entry assays (BlaM-Vpr, Nef-luciferase)", "type": "cell-based", "conditions": "HIV-1 Vpr-β-lactamase or Nef-luciferase tagged virions"}, "[4]": {"test_system": "HSV-1 (Herpes simplex virus)", "type": "cell-based", "conditions": "Vero cells"}, "[5]": {"test_system": "VEEV (venezuelan equine encephalitis virus)", "type": "cell-based", "conditions": "Vero cells"}, "[6]": {"test_system": "phosphorylation of PAK1/2", "assay": "Western blot of PAK1/2 phosphorylation in CEM-SS T cells", "type": "cell-based, human", "protocol": "(§3) FIG. 10. Chemical and Biochemical characterization of R10015. a, Chemical structure of R10015 and its docking into the crystal structure of LIMK1 (PDB ID 3S95, Chain A). […] CEM-SS T cells treated with R10015 (100 μM) for a time course, and the phosphorylation of cofilin, LIMK, and PAK1/2 were measured by Western Blot. Levels of each protein or GAPDH were also measured for loading control. d, R10015 inhibits Jurkat T cell chemotaxis in responding to SDF-1. e, R10015. f, R10015 inhibits chemotactic actin activity. Resting CD4 T cells were treated with R10015, and then exposed to SDF-1 for a time course. Actin polymerization were measured by FITC-phalloidin staining. g, the relative intensity of F-actin staining was also plotted.\n(§4) One million cells were lysed in NuPAGE LDS Sample Buffer (Invitrogen), separated by SDS-PAGE, and then transferred onto nitrocellulose membranes (Invitrogen). The membranes were washed in TBST for 3 min and then blocked for 30 min at room temperature with Starting Block blocking buffer (Pierce). For probing with different antibodies, blots were incubated with rabbit anti-LIMK1 antibodies (Cell Signaling), with rabbit anti-p-coflin antibodies (Cell Signaling) or with a mouse anti-PAK1/2 antibody (Cell Signaling). These antibodies were diluted in 2.5% milk/TBST and rocked overnight at 4° C. […]"}, "HIV-1(NL4-3) [7]": {"test_system": "HIV-1(NL4-3)", "type": "cell-based", "conditions": "non-toxic dosages"}, "phosphorylation of LIMK": {"test_system": "phosphorylation of LIMK", "assay": "Western blot of LIMK phosphorylation in CEM-SS T cells", "type": "cell-based, human", "protocol": "as §3, §4"}, "EBOV (Zaire ebolavirus)": {"test_system": "EBOV (Zaire ebolavirus)", "type": "cell-based", "conditions": "HFF-1 cells"}, "[8]": {"test_system": "cofilin serine 3 phosphorylation in CEM-SS T cells", "assay": "Western blot of cofilin serine 3 phosphorylation in CEM-SS T cells (time course)", "type": "cell-based, human", "conditions": "100 μM", "protocol": "as §3, §4"}},
  "note": "Read-outs that look alike come from different tables or passages of the source.",
  "data": [
    {"smiles": "Cc1c[nH]c2ncnc(-c3ccc(NC(=O)N(CCO)c4ccccc4)cc3)c12", "note": "[Compound 18b, 1-(2-Hydroxyethyl)-3-(4-(5-methyl-7H-pyrrolo[2,3-d]pyrimidin-4-yl)phenyl)-1-phenylurea]", "values": [
      {"measurement": "inhibition at 1 µM", "setting": "LRRK2 (G20195); kinase panel", "result": "> 50", "unit": "%"},
      {"measurement": "P450 % inh. at 10 μM 3A4", "setting": "P450 3A4", "result": 13, "unit": "%"},
      {"measurement": "IC50", "setting": "ROCK-II", "result": 6.57, "unit": "µM"},
      {"measurement": "X4 HIV infection (screen)", "setting": "HIV-1(NL4-3) [1]", "result": "blocked"},
      {"measurement": "AUC (iv)", "setting": "[2]; iv dosing 1 mg/kg", "result": 8.4, "unit": "µM·h"},
      {"measurement": "Cl (iv)", "setting": "[2]; iv dosing 1 mg/kg", "result": 5.2, "unit": "mL/min/kg"},
      {"measurement": "T1/2 (iv)", "setting": "[2]; iv dosing 1 mg/kg", "result": 2.2, "unit": "h"},
      {"measurement": "Yd (iv)", "setting": "[2]; iv dosing 1 mg/kg", "result": 0.4, "unit": "L/kg"},
      {"measurement": "F (%) (po)", "setting": "[2]; po dosing 2 mg/kg", "result": 36, "unit": "%"},
      {"measurement": "Cmax", "setting": "[2]; read-out: Cmax (iv), iv dosing 1 mg/kg", "result": 7.7, "unit": "µM"},
      {"measurement": "P450 % inh. at 10 μM 1A2", "setting": "P450 1A2", "result": "−16/14/5/13%"}
    ]},
    {"smiles": "COC(=O)c1ccc2[nH]c(C3CCN(c4ncnc5[nH]cc(Cl)c45)CC3)nc2c1", "note": "[Compound R10015, Methyl 2-(1-(5-chloro-7H-pyrrolo[2,3-d]pyrimidin-4-yl)piperidin-4-yl)-1Hbenzo[d]imidazole-5-carboxylate]", "values": [
      {"measurement": "T cell activation (CD25 and CD69 surface staining)", "setting": "resting CD4 T cells", "result": "did not inhibit T cell activation"},
      {"measurement": "activity at 1 µM", "setting": "Limk1", "result": 6.4, "unit": "%"},
      {"measurement": "activity at 1 µM", "setting": "LRRK2 (G20195); ATP 10 μM", "result": 6.7, "unit": "%"},
      {"measurement": "viral entry", "setting": "[3]", "result": "did not significantly inhibit"},
      {"measurement": "HSV-1 infection", "setting": "[4]", "result": "inhibited"},
      {"measurement": "VEEV infection", "setting": "[5]", "result": "inhibited"},
      {"measurement": "phosphorylation of PAK1/2", "setting": "[6]", "result": "not inhibited"},
      {"measurement": "IC50", "setting": "HIV-1(NL4-3) [1]; Human immunodeficiency virus 1, NL43, T-cell, read-out: half maximal inhibition concentration (IC50) for inhibiting HIV infection", "result": 14.9, "unit": "µM"},
      {"measurement": "X4 HIV infection (screen)", "setting": "HIV-1(NL4-3) [1]; […], dosages with no detectable cytotoxicity", "result": "blocked"},
      {"measurement": "X4 viral infection of blood resting CD4 T cells", "setting": "HIV-1(NL4-3) [7]", "result": "inhibition"},
      {"measurement": "phosphorylation of LIMK", "setting": "phosphorylation of LIMK", "result": "did not inhibit"},
      {"measurement": "EBOV infection", "setting": "EBOV (Zaire ebolavirus)", "result": "inhibited"},
      {"measurement": "cofilin serine 3 phosphorylation", "setting": "[8]", "result": "drastic inhibition"}
    ]}
  ]
}
